{
  "source": "ChEMBL document CHEMBL5532761",
  "about": "“Rosavin improves insulin resistance and alleviates hepatic and kidney damage via modulating the cGAS-STING pathway and autophagy signaling in HFD/STZ-induced T2DM animals” (2024)",
  "key": {"Rattus norvegicus [1]": {"test_system": "Rattus norvegicus", "assay": "(§1) Antidiabetic activity in high fat diet-STZ induced diabetic Wistar rat model assessed as mean area percentage of LC3B in kidney at 10 mg/kg, ip pretreated with high fat diet for 4 weeks followed by 8 hrs fasting after STZ administration and measured after 4 weeks of compound treatment by immunohistochemistry based microscopic analysis (reference value: 2.47 +/- 0.356 %)", "format": "functional"}, "Rattus norvegicus [2]": {"test_system": "Rattus norvegicus", "assay": "(§2) Antidiabetic activity in high fat diet-STZ induced diabetic Wistar rat model assessed as insulin level in serum at 20 mg/kg, ip pretreated with high fat diet for 4 weeks followed by 8 hrs fasting after STZ administration and measured 4 weeks after compound treatment by ELISA (reference value: 16.53 +/- 1.14 microU/ml)", "format": "functional"}, "Rattus norvegicus [3]": {"test_system": "Rattus norvegicus", "assay": "as §2, with “LDL-cholesterol” for “insulin”, “level” for “level in serum”, “treatment” for “treatment by ELISA”, “6.54” for “16.53”, “0.918 mmol/L)” for “1.14 microU/ml)”", "format": "functional"}, "Rattus norvegicus [4]": {"test_system": "Rattus norvegicus", "assay": "(§3) Antidiabetic activity in high fat diet-STZ induced diabetic Wistar rat model assessed as reduction in adipocyte diameter in adipose tissue at 10 mg/kg, ip pretreated with high fat diet for 4 weeks followed by 8 hrs fasting after STZ administration and measured 4 weeks after compound treatment by hematoxylin and eosin staining based microscopic analysis", "format": "functional, organism-based"}, "Rattus norvegicus [5]": {"test_system": "Rattus norvegicus", "assay": "as §3, with “increase” for “reduction”, “AC074117.2 lncRNA expression” for “adipocyte diameter”, “10 to 30” for “10”, “RT-qPCR” for “hematoxylin and eosin staining based microscopic”", "format": "functional, organism-based", "details": "dose 10-30 mg/kg"}, "Rattus norvegicus [6]": {"test_system": "Rattus norvegicus", "assay": "(§4) Antidiabetic activity in high fat diet-STZ induced diabetic Wistar rat model assessed as LDL-cholesterol level at 30 mg/kg, ip pretreated with high fat diet for 4 weeks followed by 8 hrs fasting after STZ administration and measured 4 weeks after compound treatment (reference value: 6.54 +/- 0.918 mmol/L)", "format": "functional"}, "Rattus norvegicus [7]": {"test_system": "Rattus norvegicus", "assay": "(§5) Antidiabetic activity in high fat diet-STZ induced diabetic Wistar rat model assessed as creatinine level at 10 mg/kg, ip pretreated with high fat diet for 4 weeks followed by 8 hrs fasting after STZ administration and measured 4 weeks after compound treatment (reference value: 3.88 +/- 0.502 mg%)", "format": "functional"}, "Rattus norvegicus [8]": {"test_system": "Rattus norvegicus", "assay": "as §3, with “intact hepatocytes” for “reduction in adipocyte diameter in adipose tissue”, “30” for “10”", "format": "functional, organism-based"}, "Rattus norvegicus [9]": {"test_system": "Rattus norvegicus", "assay": "as §1, with “TNFalpha” for “LC3B”, “24” for “2.47”, “1.5” for “0.356”", "format": "functional"}, "Rattus norvegicus [10]": {"test_system": "Rattus norvegicus", "assay": "Antidiabetic activity in high fat diet-STZ induced diabetic Wistar rat model assessed as AST level at 10 mg/kg, ip pretreated with high fat diet for 4 weeks followed by 8 hrs fasting after STZ administration and measured 4 weeks after compound treatment (reference value: 136.3 +/- 22.8 IU/L)", "format": "functional"}, "Rattus norvegicus [11]": {"test_system": "Rattus norvegicus", "assay": "as §4, with “HDL-cholesterol” for “LDL-cholesterol”, “10” for “30”, “0.688” for “6.54”, “0.288” for “0.918”", "format": "functional"}, "Rattus norvegicus [12]": {"test_system": "Rattus norvegicus", "assay": "as §2, with “30” for “20”", "format": "functional"}, "Rattus norvegicus [13]": {"test_system": "Rattus norvegicus", "assay": "(§6) Antidiabetic activity in ip dosed high fat diet-STZ induced diabetic Wistar rat model assessed as reduction of miR-1976 expression in liver pretreated with high fat diet for 4 weeks followed by 8 hrs fasting after STZ administration and measured 4 weeks after compound treatment by RT-qPCR analysis", "format": "functional, organism-based", "details": "dose 10-30 mg/kg"}, "Rattus norvegicus [14]": {"test_system": "Rattus norvegicus", "assay": "as §6, with “adipose tissue” for “liver”", "format": "functional, organism-based", "details": "dose 10-30 mg/kg"}, "Rattus norvegicus [15]": {"test_system": "Rattus norvegicus", "assay": "as §5, with “blood urea nitrogen” for “creatinine”, “20” for “10”, “466.4” for “3.88”, “51.16” for “0.502”", "format": "functional"}, "Rattus norvegicus [16]": {"test_system": "Rattus norvegicus", "assay": "Antidiabetic activity in ip dosed high fat diet-STZ induced diabetic Wistar rat model assessed as reduction of ZBP1 mRNA expression in liver pretreated with high fat diet for 4 weeks followed by 8 hrs fasting after STZ administration and measured 4 weeks after compound treatment by RT-qPCR analysis", "format": "functional, organism-based", "details": "dose 10-30 mg/kg"}, "Rattus norvegicus [17]": {"test_system": "Rattus norvegicus", "assay": "as §3, with “intact tubular segments” for “reduction”, “kidney” for “adipocyte diameter in adipose tissue”, “20 to 30” for “10”", "format": "functional, organism-based", "details": "dose 20-30 mg/kg"}, "Rattus norvegicus [18]": {"test_system": "Rattus norvegicus", "assay": "as §4, with “triglyceride” for “LDL-cholesterol”, “17.05” for “6.54”, “0.803” for “0.918”", "format": "functional"}, "Rattus norvegicus [19]": {"test_system": "Rattus norvegicus", "assay": "(§7) Antidiabetic activity in ip dosed high fat diet-STZ induced diabetic Wistar rat model assessed as reduction of miR-1976 expression in kidney pretreated with high fat diet for 4 weeks followed by 8 hrs fasting after STZ administration and measured 4 weeks after compound treatment by RT-qPCR analysis", "format": "functional, organism-based", "details": "dose 10-30 mg/kg"}, "Rattus norvegicus [20]": {"test_system": "Rattus norvegicus", "assay": "as §3, with “degenerative changes” for “adipocyte diameter”, “liver” for “adipose tissue”, “30” for “10”", "format": "functional, organism-based"}, "Rattus norvegicus [21]": {"test_system": "Rattus norvegicus", "assay": "as §1, with “TNF alpha” for “LC3B”, “liver” for “kidney”, “30” for “10”, “18.28” for “2.47”, “1.31” for “0.356”", "format": "functional"}, "Rattus norvegicus [22]": {"test_system": "Rattus norvegicus", "assay": "Antidiabetic activity in high fat diet-STZ induced diabetic Wistar rat model assessed as HOMA-IR level at 20 mg/kg, ip pretreated with high fat diet for 4 weeks followed by 8 hrs fasting after STZ administration and measured 4 weeks after compound treatment (reference value: 21.51 +/- 2.17)", "format": "functional"}, "Rattus norvegicus [23]": {"test_system": "Rattus norvegicus", "assay": "as §4, with “blood urea nitrogen” for “LDL-cholesterol”, “466.4” for “6.54”, “51.16 mg%)” for “0.918 mmol/L)”", "format": "functional"}, "Rattus norvegicus [24]": {"test_system": "Rattus norvegicus", "assay": "as §3, with “protection against replacement of hepatocellular necrosis with inflammatory cells” for “reduction in adipocyte diameter in adipose tissue”", "format": "functional, organism-based"}, "Rattus norvegicus [25]": {"test_system": "Rattus norvegicus", "assay": "as §5, with “blood urea nitrogen” for “creatinine”, “466.4” for “3.88”, “51.16” for “0.502”", "format": "functional"}, "Rattus norvegicus [26]": {"test_system": "Rattus norvegicus", "assay": "(§8) Antidiabetic activity in high fat diet-STZ induced diabetic Wistar rat model assessed as HOMA-IR level at 10 mg/kg, ip pretreated with high fat diet for 4 weeks followed by 8 hrs fasting after STZ administration and measured 4 weeks after compound treatment (reference value: 21.51 +/- 2.17)", "format": "functional"}, "Rattus norvegicus [27]": {"test_system": "Rattus norvegicus", "assay": "as §8, with “cholesterol” for “HOMA-IR”, “10.39” for “21.51”, “1.3 mmol/L)” for “2.17)”", "format": "functional"}, "Rattus norvegicus [28]": {"test_system": "Rattus norvegicus", "assay": "as §3, with “protection against vacuolar changes throughout hepatic lobules” for “reduction in adipocyte diameter in adipose tissue”", "format": "functional, organism-based"}, "Rattus norvegicus [29]": {"test_system": "Rattus norvegicus", "assay": "as §3, with “organized histological features of hepatic parenchyma” for “reduction in adipocyte diameter in adipose tissue”, “30” for “10”", "format": "functional, organism-based"}, "Rattus norvegicus [30]": {"test_system": "Rattus norvegicus", "assay": "Antidiabetic activity in high fat diet-STZ induced diabetic Wistar rat model assessed as ALT level at 20 mg/kg, ip pretreated with high fat diet for 4 weeks followed by 8 hrs fasting after STZ administration and measured 4 weeks after compound treatment (reference value: 152.1 +/- 23.64 IU/L)", "format": "functional"}, "Rattus norvegicus [31]": {"test_system": "Rattus norvegicus", "assay": "as §7, with “in” for “in ip dosed”, “increase in AC074117.2 lncRNA” for “reduction of miR-1976”, “kidney at 10 to 30 mg/kg, ip” for “kidney”", "format": "functional, organism-based", "details": "dose 10-30 mg/kg"}},
  "note": "The source made the active and inactive calls. No cut-off for these calls is given here.",
  "data": [
    {"smiles": "O[C@@H]1[C@@H](O)[C@H](OC/C=C/c2ccccc2)O[C@H](CO[C@@H]2OC[C@H](O)[C@H](O)[C@H]2O)[C@H]1O", "values": [
      {"measurement": "Activity", "setting": "Rattus norvegicus [1]", "result": 8.6, "unit": "%"},
      {"measurement": "Activity", "setting": "Rattus norvegicus [2]", "result": 6.4, "unit": "uU/ml"},
      {"measurement": "Activity", "setting": "Rattus norvegicus [3]", "result": 2.13, "unit": "mmol/L"},
      {"measurement": "Activity", "setting": "Rattus norvegicus [4]", "result": "inactive"},
      {"measurement": "Activity", "setting": "Rattus norvegicus [5]", "result": "Active"},
      {"measurement": "Activity", "setting": "Rattus norvegicus [6]", "result": 1.3, "unit": "mmol/L"},
      {"measurement": "Activity", "setting": "Rattus norvegicus [7]", "result": 2.12, "unit": "mg%"},
      {"measurement": "Activity", "setting": "Rattus norvegicus [8]", "result": "Active"},
      {"measurement": "Activity", "setting": "Rattus norvegicus [9]", "result": 16.98, "unit": "%"},
      {"measurement": "Activity", "setting": "Rattus norvegicus [10]", "result": 83.63, "unit": "IU/L"},
      {"measurement": "Activity", "setting": "Rattus norvegicus [11]", "result": 0.916, "unit": "mmol/L"},
      {"measurement": "Activity", "setting": "Rattus norvegicus [12]", "result": 5.64, "unit": "uU/ml"},
      {"measurement": "Activity", "setting": "Rattus norvegicus [13]", "result": "Dose-Dependent Effect"},
      {"measurement": "Activity", "setting": "Rattus norvegicus [14]", "result": "Dose-Dependent Effect"},
      {"measurement": "Activity", "setting": "Rattus norvegicus [15]", "result": 213.3, "unit": "mg%"},
      {"measurement": "Activity", "setting": "Rattus norvegicus [16]", "result": "Dose-Dependent Effect"},
      {"measurement": "Activity", "setting": "Rattus norvegicus [17]", "result": "Active"},
      {"measurement": "Activity", "setting": "Rattus norvegicus [18]", "result": 4.03, "unit": "mmol/L"},
      {"measurement": "Activity", "setting": "Rattus norvegicus [19]", "result": "Dose-Dependent Effect"},
      {"measurement": "Activity", "setting": "Rattus norvegicus [20]", "result": "Active"},
      {"measurement": "Activity", "setting": "Rattus norvegicus [21]", "result": 3.52, "unit": "%"},
      {"measurement": "Activity", "setting": "Rattus norvegicus [22]", "result": 2.76},
      {"measurement": "Activity", "setting": "Rattus norvegicus [23]", "result": 172.3, "unit": "mg%"},
      {"measurement": "Activity", "setting": "Rattus norvegicus [24]", "result": "inactive"},
      {"measurement": "Activity", "setting": "Rattus norvegicus [25]", "result": 254.7, "unit": "mg%"},
      {"measurement": "Activity", "setting": "Rattus norvegicus [26]", "result": 7.81},
      {"measurement": "Activity", "setting": "Rattus norvegicus [27]", "result": 6.09, "unit": "mmol/L"},
      {"measurement": "Activity", "setting": "Rattus norvegicus [28]", "result": "inactive"},
      {"measurement": "Activity", "setting": "Rattus norvegicus [29]", "result": "Active"},
      {"measurement": "Activity", "setting": "Rattus norvegicus [30]", "result": 42.38, "unit": "IU/L"},
      {"measurement": "Activity", "setting": "Rattus norvegicus [31]", "result": "Active"}
    ]}
  ]
}
